Assay results from US8546380B2, “Aminodihydrothiazine derivatives” (Shionogi & Co., Ltd., priority 2005, dated 2013).
Like-named read-outs stand apart in the source and are kept apart here.

Tests used:
[1] = target: recombinant human BACE-1 protein (Homo sapiens (Human), UniProt P56817); assay: Measurement of Inhibition of β-Secretase Activity; assay type: biochemical; conditions: 3 h at 30° C., pH5.0, read-out: IC50 value
Summary of the method: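 Recombinant human BACE-1 incubated with compound and Eu-cryptate-labelled biotinylated peptide substrate 3 h at 30° C in 50 mM sodium acetate pH 5.0, 0.008% Triton X-100. Streptavidin-XL665 in KF-containing phosphate buffer pH 7.0 then added, 1 h at 30° C, for time-resolved FRET read-out.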

[2] = fluorescence-quenched peptide substrate 18 nM, BACE-1 7.4 nM
[3] = recombinant human BACE-1 protein

Sequence of recombinant human BACE-1 protein (P56817 46-501): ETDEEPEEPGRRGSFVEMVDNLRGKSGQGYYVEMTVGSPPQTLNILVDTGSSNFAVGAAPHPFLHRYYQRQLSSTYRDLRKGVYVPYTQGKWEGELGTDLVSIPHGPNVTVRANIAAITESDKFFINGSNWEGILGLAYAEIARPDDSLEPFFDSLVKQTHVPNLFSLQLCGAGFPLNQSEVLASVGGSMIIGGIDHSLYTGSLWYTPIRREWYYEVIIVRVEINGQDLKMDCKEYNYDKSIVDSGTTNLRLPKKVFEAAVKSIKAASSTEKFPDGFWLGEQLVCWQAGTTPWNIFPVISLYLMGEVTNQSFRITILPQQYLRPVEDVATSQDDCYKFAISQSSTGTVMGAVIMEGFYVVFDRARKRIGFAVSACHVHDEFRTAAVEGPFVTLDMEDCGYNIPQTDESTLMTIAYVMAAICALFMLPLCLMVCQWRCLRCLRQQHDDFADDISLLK

| Compound | melting point | IC50 [1, 2] | IC50 [1, 3] |
| --- | --- | --- | --- |
| CC1(c2ccc(C(=O)NCc3ccccc3)s2)CCSC(N)=N1 (stereo not drawn) [Compound 1124] | 169 to 172 °C | < 100 µM |  |
| CC1(c2cccc(OCCOc3ccc(Cl)cc3)c2)CCSC(N)=N1.Cl (stereo not drawn) [Compound 121] | 166 to 167 °C | < 100 µM |  |
| CC1(c2cc(NC(=O)c3ccc(C(F)(F)F)cn3)ccc2F)CCSC(N)=N1 (stereo not drawn) [Compound 396] | 211 to 213 °C | < 100 µM |  |
| CC1(c2cccc(NC(=O)c3ncc(Cl)cn3)c2)CCSC(N)=N1 (stereo not drawn) [Compound 515] | 204 to 206 °C | < 100 µM |  |
| COc1cc(NC(=O)c2ccc(Cl)cn2)cc(C2(C)CCSC(N)=N2)c1.Cl (stereo not drawn) [Compound 1035] | 247 to 251 °C (dec.) |  | 0.174 µM |
| CC1(c2cc(NC(=O)c3ccc(Cl)cn3)cc(C(F)(F)F)c2)CCSC(N)=N1 (stereo not drawn) [Compound 964] | 185 to 187 °C |  | 0.264 µM |
| Cc1ccc(C2(C)CCSC(N)=N2)cc1 (stereo not drawn) [Compound 85] | 147 to 148 °C | < 100 µM |  |
| CC(=O)Nc1cc(Cl)cnc1C(=O)Nc1cccc(C2(C)CCSC(N)=N2)c1 (stereo not drawn) [Compound 511] | 211 to 214 °C | < 100 µM |  |
| CC1(c2cccc(CCC(=O)Nc3ccc(Cl)cn3)c2)CCSC(N)=N1.Cl.Cl (stereo not drawn) [Compound 657] | 199 to 203 °C | < 100 µM |  |
| CC1(c2ccc(Oc3ccc(Br)cc3)cc2)CCSC(N)=N1 (stereo not drawn) [Compound 735] | 166 to 168 °C | < 100 µM |  |
| CC1(c2ccc3ccccc3c2)CCNC(N)=N1.O=S(=O)(O)O (stereo not drawn) [Compound 125] | > 300 °C | < 100 µM |  |
| COc1ccc(OCc2cccc(C3(C)CCSC(N)=N3)c2)cc1 (stereo not drawn) [Compound 502] | 137 to 138 °C | < 100 µM |  |
| CC1(c2cccc(/C=N/OCc3cccnc3)c2)CCSC(N)=N1 (stereo not drawn) [Compound 584] | 152 to 153 °C | < 100 µM |  |
| CC1(c2cccc(NC(=O)c3ccc(N4CCOCC4)cn3)c2)CCSC(N)=N1 (stereo not drawn) [Compound 1131] | 189 to 191 °C | < 100 µM |  |
| CC1(c2cccc(NC(=O)c3ccc(C(N)=O)cn3)c2)CCSC(N)=N1.Cl (stereo not drawn) [Compound 73] | 266 to 269 °C |  | 0.435 µM |
| COc1ccc(C(=O)NCc2cccc(C3(C)CCSC(N)=N3)c2)cc1.Cl (stereo not drawn) [Compound 452] | 132 to 134 °C | < 100 µM |  |
| CC1(c2ccc3c(c2)CCCC3)CCSC(N)=N1 (stereo not drawn) [Compound 6] | 147 to 148 °C | < 100 µM |  |
| COc1ccc(C(=O)Nc2cccc(C3(C)CCSC(N)=N3)c2)nn1 (stereo not drawn) [Compound 405] | 192 to 194 °C | < 100 µM |  |
| CC1(c2cccc(NC(=O)c3ccc(C(F)(F)F)cn3)c2)CCSC(N)=N1.Cl (stereo not drawn) [Compound 1244] | 268 to 288 °C |  | 0.13 µM |
| CC1(c2cc(Br)cc(NC(=O)c3ccc(Br)cc3)c2)CCSC(N)=N1.Cl (stereo not drawn) [Compound 1262] | 278 to 281 °C |  | 0.14 µM |
| Cc1ccc(C(=O)Nc2cccc(C3(C)CCSC(N)=N3)c2)nc1 (stereo not drawn) [Compound 528] | 173 to 174 °C | < 100 µM |  |
| CC1(c2ccc3c(c2)NC(=O)CO3)CCSC(N)=N1 (stereo not drawn) [Compound 38] | 240 to 244 °C (dec.) | < 100 µM |  |
| CC1(c2cccc(Br)c2)CCSC(N)=N1.Cl (stereo not drawn) [Compound 339] | 217 to 218 °C | < 100 µM |  |
| CC1(c2ccc(F)cc2)CCCSC(N)=N1.Cl (stereo not drawn) [Compound 129] | 219 to 222 °C | < 100 µM |  |

| Compound | melting point | IC50 [1, 2] | IC50 [1, 3] |
| --- | --- | --- | --- |
| CC1(c2cc(NC(=O)c3ccc(Cl)cn3)ccc2Cl)CCSC(N)=N1.Cl (stereo not drawn) [Compound 1199] | 274 to 283 °C |  | 0.032 µM |
| CC1(c2ccc(F)cc2)CCSC(N)=N1 (stereo not drawn) [Compound 549] | 100 to 101 °C | < 100 µM |  |
| CC(C)Oc1cc(NC(=O)c2ccc(Cl)cn2)cc(C2(C)CCSC(N)=N2)c1.Cl (stereo not drawn) [Compound 1135] | 255 to 260 °C (dec.) |  | 2.3 µM |
| CC1(c2cc(NC(=O)c3ccc(C(F)(F)F)cn3)cc(C(F)(F)F)c2)CCSC(N)=N1 (stereo not drawn) [Compound 897] | 212 to 214 °C |  | 0.816 µM |
| CC1(c2cccc(OCCCc3ccccc3)c2)CCSC(N)=N1 (stereo not drawn) [Compound 1010] | 90 to 91 °C |  | 2.8 µM |
| CC1(c2cccc(NC(=O)c3ccc(C#N)cc3)c2)CCSC(N)=N1 (stereo not drawn) [Compound 498] | 122 to 125 °C |  | 0.93 µM |
| CO/N=C/c1cccc(C2(C)CCSC(N)=N2)c1 (stereo not drawn) [Compound 804] | 135 to 136 °C | < 100 µM |  |
| CC1(c2cccc(NC(=O)c3ccc4ccccc4n3)c2)CCSC(N)=N1 (stereo not drawn) [Compound 935] | 161 to 165 °C | < 100 µM |  |
| COc1ccc(C2(C)N=C(N)SCC2C)cc1.Cl (stereo not drawn) [Compound 8] | 214 to 217 °C | < 100 µM |  |
| CC1(c2cccc(NC(=O)c3ccc(Cl)cn3)c2)CCSC(N)=N1.Cl (stereo not drawn) [Compound 793] | 269 °C (dec.) |  | 0.061 µM |
| CC1(c2cccc(CNC(=O)c3ccc(Cl)cc3)c2)CCSC(N)=N1.Cl (stereo not drawn) [Compound 1184] | 149 to 150 °C | < 100 µM |  |
| CC1(c2cccc(/C=N/OCc3ccccn3)c2)CCSC(N)=N1 (stereo not drawn) [Compound 1193] | 182 to 183 °C | < 100 µM |  |
| COCc1cc(NC(=O)c2ccc(C)cc2)cc(C2(C)CCSC(N)=N2)c1 (stereo not drawn) [Compound 465] | 194.6 °C |  | 3.24 µM |
| CCOC(=O)CCc1cccc(C2(C)CCSC(N)=N2)c1.Cl (stereo not drawn) [Compound 720] | 133 to 138 °C | < 100 µM |  |
| CC1(c2cc(Br)cc(NC(=O)c3nc4ccccc4s3)c2)CCSC(N)=N1.Cl (stereo not drawn) [Compound 570] | 186 to 187 °C |  | 0.149 µM |
| Cc1cc(C(=O)Nc2cc(Br)cc(C3(C)CCSC(N)=N3)c2)c(C)o1.Cl (stereo not drawn) [Compound 436] | 254 to 256 °C |  | 0.16 µM |
| CC1(c2cccc(SC(=O)c3ncc(Br)cn3)c2)CCSC(N)=N1 (stereo not drawn) [Compound 900] | 205 to 207 °C | < 100 µM |  |
| CC(C)c1ccc(C(=O)Nc2cccc(C3(C)CCSC(N)=N3)c2)nc1 (stereo not drawn) [Compound 1005] | 191 to 193 °C | < 100 µM |  |
| COCc1cc(NC(=O)c2ccc(Br)cc2)cc(C2(C)CCSC(N)=N2)c1.Cl (stereo not drawn) [Compound 1197] | 250 to 255 °C (dec.) |  | 0.912 µM |
| CCC1(c2cccc(NC(=O)c3ccc(Cl)cn3)c2)CCSC(N)=N1 (stereo not drawn) [Compound 380] | 181 to 182 °C | < 100 µM |  |
| CN(C)c1cnc(C(=O)Nc2cccc(C3(C)CCSC(N)=N3)c2)cn1 (stereo not drawn) [Compound 302] | 122 to 126 °C | < 100 µM |  |
| CC1(c2cccc(NC(=O)c3cnccn3)c2)CCSC(N)=N1 (stereo not drawn) [Compound 164] | 91 to 96 °C | < 100 µM |  |
| CC1(c2cccc(NCc3ccccn3)c2)CCSC(N)=N1 (stereo not drawn) [Compound 333] | 154 to 158 °C | < 100 µM |  |
| CC1(c2cc(Br)cc(NC(=O)c3ccno3)c2)CCSC(N)=N1.Cl (stereo not drawn) [Compound 1132] | 175 to 180 °C (dec.) |  | 2.56 µM |
